Laboratory results taken from patent publication US20230181564A1, “Potent Tetrahydroquinolone Eliminates Apicomplexan Parasites” (The University of Chicago, priority 2020, published 2023).
≈ marks a conversion by molar mass, not a printed value.

Legend:
[1] = Kinetic/aqueous solubility in PBS pH 7.4; type: physicochemical
Procedure: PBS Sol/Toxicity pH7.4 refers to solubility of the compound in Phosphate Buffered Saline (PBS) at pH7.4. […] Parasites were RH-YFP expressing tachyzoites (Tachy) and EGS (Brady) strains. Studies of effects of inhibitors on HFF or on T.gondii tachyzoites were performed with triplicate wells in at least two biological replicate experiments. Studies of effects on bradyzoites were performed at least twice in at least two biological replicate experiments. Compounds with much less inhibition of mammalian than T. gondii cytochrome bc in the saffarine enzyme assay (indicated by **) provide potential to further develop compounds, if unanticipated toxicity occurs from JAG21.
Structure Activity Relationship (SAR) and comparison of effect on T.gondii and HFF enzyme activity. […] The MDCK-MDR1 Permeability Assay was also performed. […] These were measured by Chem Partners.

T. gondii Me49 strain = experiment: Established chronic Me49 infection in Balb/C mice, brain cysts; type: in vivo, Toxoplasma gondii; conditions: treatment from day 30 after Me49 infection, IP daily for 14 days; p<0.03, p<0.01
Procedure: In separate experiments, Balb/C mice were infected IP with 20×10^3 T. gondii Me49 strain tachyzoites. In these separate studies of mice with established chronic infection, after 30 days, IP treatment with JAG21 was begun each day for 14 days. JAG21 was dissolved in DMSO and administered IP in a total volume of 0.05 mL. In experiments when tafenoquine was administered alone or with JAG21 in some groups 3 mg/kg tafenoquine was administered once on day −1 from when JAG21 treatment was initiated. Cysts in brain were quantitated on day 30, 16 days after discontinuing JAG21. Immunoperoxidase staining was performed. Parasite burden was quantitated in two ways. The first was using a positive pixel count algorithm of Aperio ImageScope software. Positive pixels were normalized to tissue area (mm^2). Briefly, automated quantitation was done by counting positive pixels per square area. The entire brain in one section was scanned for each mouse. The Cyst burden was quantitated as units of positive pixels per mm2. The average±S.E.M. numbers of mm2 per slide quantitated was 30.2±1.6 square mm per mouse for this quantification. […] Cysts on each slide for each condition in two biological replicate experiments were also quantitated by 2 separate observers independently and results compared with automated counting, separately.

[2] = system: T. gondii RH-YFP tachyzoites; experiment: Synergy studies with RH strain YFP tachyzoites; type: cell-based, Toxoplasma gondii
Procedure: Synergy studies with RH strain YFP Tachyzoites. Atovaquone and pyrimethamine were used to test whether they are synergistic with JAG21. Serial dilutions of the combination of JAG21 and either atovaquone or pyrimethamine were used in an in vitro challenge assay as described above. The EC50 of each compound and the combination of two compounds were determined. The effect of the combination of drugs was calculated with the following formula: C=[A]c/[A]a+[B]c/[B]a. If C is lower than 1, the two compounds tested have synergistic effect; if C is greater than 1, the two compounds tested have antagonist effect and if C is 1 they are additive.

[3] = system: T. gondii EGS strain bradyzoites; experiment: In vitro challenge assay for EGS strain bradyzoites in HFF; type: cell-based, Toxoplasma gondii; conditions: 500 nM
Procedure: PBS Sol/Toxicity pH7.4 refers to solubility of the compound in Phosphate Buffered Saline (PBS) at pH7.4. […] Tachy/Brady IC50 was determined in studies in which cultures of parasites in HFF were treated with varying concentrations of the compound and there was 50% inhibition of the replication (number) of parasites. Parasites were RH-YFP expressing tachyzoites (Tachy) and EGS (Brady) strains. Studies of effects of inhibitors on HFF or on T.gondii tachyzoites were performed with triplicate wells in at least two biological replicate experiments. Studies of effects on bradyzoites were performed at least twice in at least two biological replicate experiments. Compounds with much less inhibition of mammalian than T. gondii cytochrome bc in the saffarine enzyme assay (indicated by **) provide potential to further develop compounds, if unanticipated toxicity occurs from JAG21. […]
Cells were fixed using 4% paraformaldehyde and stained with Fluorescein-labeled Dolichos Biflorus Agglutinin, DAPI, and BAG1. […] Effects of compounds were quantitated by counting cysts in controls and treated cultures. Dolichos staining delimited structures and single organisms that remained were counted in a representative field of view. This was then multiplied by a factor determined by the total area of the cover slip in order to estimate the number of cysts and organisms in each condition. […]

What does the source list for `Cc1[nH]c2c(c(=O)c1-c1ccc(Oc3ccc(OC(F)(F)F)cc3)cc1)CCCC2` [JAG021, 2-methyl-3-(4-(4-(trifluoromethoxy)phenoxy)phenyl)-5,6,7,8-tetrahydroquinolin-4-one]?
solubility ([1]; amorphous compounds): 7 µM (≈ 2.91 µg/mL); Solubility of the microcrystalline form ([1]; microcrystalline form): 3.5 µM; PBS Sol pH7.4 ([1]; solubility in Phosphate Buffered Saline pH 7.4, first value of cell): 7.07 μM; Normal appearing cysts, free organisms and immunoperoxidase stained cysts in brain (T. gondii Me49 strain): marked, statistically significant reduction; Combination with atovaquone against RH strain tachyzoites ([2]; isobologram): synergy; Combination with pyrimethamine against RH strain tachyzoites ([2]; no synergy): no antagonism; EGS bradyzoites in treated cultures [3]: not seen
